Test results taken from patent EP0637237B1, “CALCIUM RECEPTOR-ACTIVE MOLECULES” (BRIGHAM AND WOMEN'S HOSPITAL, INC., priority 1993, dated 1994).
Like-named read-outs stand apart in the source and are kept apart here.

Tests used:
human parathyroid cells = experiment: PTH secretion from human parathyroid cells; assay type: cell-based; settings: at concentrations that caused mobilization of intracellular Ca2+, Fig. 13
Ca^2+ receptor = biological target: T1, Ca^2+ receptor (Homo sapiens, UniProt P41180); experiment: Cl- current in Xenopus oocytes injected with human parathyroid poly(A)+ mRNA; assay type: cell-based
T1 construct: Oocytes were injected with poly(A)^+-enriched mRNA from human parathyroid tissue (hyperplastic glands from a case of secondary HPT); expressed in transfected cells; host or cells: Xenopus laevis oocytes injected with poly(A)+ mRNA from hyperplastic human parathyroid glands
T1 sequence (P41180 20-1078): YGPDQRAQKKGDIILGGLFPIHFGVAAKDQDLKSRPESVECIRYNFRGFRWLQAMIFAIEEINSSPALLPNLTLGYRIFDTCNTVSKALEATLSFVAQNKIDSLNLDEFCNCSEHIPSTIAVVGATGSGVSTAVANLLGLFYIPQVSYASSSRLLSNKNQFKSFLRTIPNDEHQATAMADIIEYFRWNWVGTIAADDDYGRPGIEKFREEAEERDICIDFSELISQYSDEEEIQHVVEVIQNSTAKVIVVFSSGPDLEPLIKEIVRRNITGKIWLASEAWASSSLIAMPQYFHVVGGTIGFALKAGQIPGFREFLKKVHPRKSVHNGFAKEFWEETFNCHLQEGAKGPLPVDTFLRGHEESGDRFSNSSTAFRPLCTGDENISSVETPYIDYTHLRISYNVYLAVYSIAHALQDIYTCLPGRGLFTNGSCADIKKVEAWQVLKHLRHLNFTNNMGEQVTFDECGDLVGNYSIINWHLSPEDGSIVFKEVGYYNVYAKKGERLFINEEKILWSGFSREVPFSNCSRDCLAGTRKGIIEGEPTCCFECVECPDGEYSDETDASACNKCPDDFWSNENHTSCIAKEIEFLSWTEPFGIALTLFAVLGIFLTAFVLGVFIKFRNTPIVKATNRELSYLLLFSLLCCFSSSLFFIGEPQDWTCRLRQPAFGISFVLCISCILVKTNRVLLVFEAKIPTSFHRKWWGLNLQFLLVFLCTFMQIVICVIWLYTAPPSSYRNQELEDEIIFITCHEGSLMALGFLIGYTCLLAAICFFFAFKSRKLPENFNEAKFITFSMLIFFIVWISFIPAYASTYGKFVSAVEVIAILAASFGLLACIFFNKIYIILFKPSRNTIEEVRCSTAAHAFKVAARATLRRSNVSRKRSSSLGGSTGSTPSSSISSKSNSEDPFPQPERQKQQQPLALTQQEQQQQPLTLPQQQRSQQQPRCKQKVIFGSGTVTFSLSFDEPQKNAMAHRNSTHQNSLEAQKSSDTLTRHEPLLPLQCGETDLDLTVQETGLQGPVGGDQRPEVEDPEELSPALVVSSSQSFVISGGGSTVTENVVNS

[1] = biological target: T2, parathyroid cell Ca^2+ receptor (Homo sapiens, UniProt P41180); experiment: [Ca2+]i (fura-2) in human parathyroid cells; assay type: cell-based; design: increase in [Ca2+]i: dose or concentration left out as unconfirmed
T2 construct: Dissociated parathyroid cells were prepared from a parathyroid adenoma obtained by surgery from a patient with primary hyperparathyroidism; endogenous in cells; host or cells: primary human parathyroid cells from adenomatous or hyperplastic glands
T2 sequence (P41180 20-1078): T1 sequence (P41180 20-1078)
Method: Human parathyroid glands, obtained from patients undergoing surgical removal of parathyroid tissue for primary or uremic hyperparathyroidism (HPT), were treated similarly to bovine tissue. Glands were trimmed of excess fat and connective tissue and then minced with a fine scissors into approximate cubes of 2-3 mm. Dissociated parathyroid cells were prepared by collagenase digestion. Dissociated cells were then purified by centrifugation in Percoll buffer. The resultant parathyroid cell preparation was essentially devoid of red blood cells, adipocytes, and capillary tissue as assessed by phase contrast microscopy and Sudan black B staining. Dissociated and purified parathyroid cells were present as small clusters containing 5 to 20 cells.
The cells were then pelleted, resuspended in the same buffer lacking the ester, and incubated a further 15 min at 37°C. The cells were subsequently washed twice with PCB containing 0.5 mM CaCl2 and 0.5% BSA and maintained at room temperature (about 20°C). Immediately before use, the cells were diluted five-fold with prewarmed 0.5 mM CaCl2-PCB to obtain a final BSA concentration of 0.1%. The concentration of cells in the cuvette used for fluorescence recording was 1-2 x 10^6/ml.
The fluorescence of indicator-loaded cells was measured at 37°C in a spectrofluorimeter (Biomedical Instrumentation Group, University of Pennsylvania, Philadelphia, PA) equipped with a thermostated cuvette holder-and magnetic stirrer using excitation and emission wavelengths of 340 and 510 nm, respectively. […] Leakage of dye is dependent on temperature and most occurs within the first 2 min after warming the cells in the cuvette; dye leakage increases only very slowly thereafter. To correct the calibration for dye leakage, cells were placed in the cuvette and stirred at 37°C for 2-3 min. The cell suspension was then removed, the cells pelleted, and the supernatant returned to a clean cuvette. […] This estimate was subtracted from the apparent Fmin.

[2] = Net positive charge of the molecule; assay type: physicochemical; settings: Table 1; effective charge at physiological pH
[3] = biological target: T3, parathyroid cell Ca^2+ receptor (Bos taurus, UniProt P35384); assay type: cell-based, bovine
T3 sequence (P35384 20-1085): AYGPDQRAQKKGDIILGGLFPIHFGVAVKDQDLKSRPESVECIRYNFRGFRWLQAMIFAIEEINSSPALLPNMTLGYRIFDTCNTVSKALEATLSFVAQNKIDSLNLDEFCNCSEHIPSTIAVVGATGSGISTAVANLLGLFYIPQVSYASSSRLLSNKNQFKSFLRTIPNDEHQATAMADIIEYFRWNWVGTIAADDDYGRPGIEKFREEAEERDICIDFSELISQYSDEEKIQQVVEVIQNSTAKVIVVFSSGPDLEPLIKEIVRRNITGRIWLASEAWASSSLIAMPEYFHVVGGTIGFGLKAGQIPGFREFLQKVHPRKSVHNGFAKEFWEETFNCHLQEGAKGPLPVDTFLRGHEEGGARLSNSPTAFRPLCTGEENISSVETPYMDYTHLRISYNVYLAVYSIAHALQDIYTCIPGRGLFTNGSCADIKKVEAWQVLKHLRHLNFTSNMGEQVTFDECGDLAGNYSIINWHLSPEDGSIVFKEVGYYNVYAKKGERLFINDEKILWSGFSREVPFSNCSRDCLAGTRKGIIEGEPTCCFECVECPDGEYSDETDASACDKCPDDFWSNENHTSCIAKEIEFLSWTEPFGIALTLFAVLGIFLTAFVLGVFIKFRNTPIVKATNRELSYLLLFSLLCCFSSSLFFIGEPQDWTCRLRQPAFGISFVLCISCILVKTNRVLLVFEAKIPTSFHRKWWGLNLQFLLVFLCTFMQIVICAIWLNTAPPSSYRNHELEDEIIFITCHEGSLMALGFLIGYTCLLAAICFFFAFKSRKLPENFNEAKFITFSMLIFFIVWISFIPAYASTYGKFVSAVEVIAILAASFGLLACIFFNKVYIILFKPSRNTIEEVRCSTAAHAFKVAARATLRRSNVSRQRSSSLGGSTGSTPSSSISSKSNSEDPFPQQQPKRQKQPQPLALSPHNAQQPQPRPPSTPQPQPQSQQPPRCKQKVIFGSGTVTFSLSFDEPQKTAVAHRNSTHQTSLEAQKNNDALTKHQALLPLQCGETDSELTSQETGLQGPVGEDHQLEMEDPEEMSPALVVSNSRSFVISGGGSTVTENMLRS

NC[C@@H]1O[C@H](O[C@H]2[C@@H](O)[C@H](O[C@@H]3[C@@H](O)[C@H](N)C[C@H](N)[C@H]3O[C@H]3O[C@H](CN)[C@@H](O)[C@H](O)[C@H]3N)O[C@@H]2CO)[C@H](N)[C@@H](O)[C@@H]1O [neomycin B]
inhibition of PTH secretion (human parathyroid cells): inhibited PTH secretion from human parathyroid cells
mobilization of intracellular Ca2+ in oocytes expressing the Ca2+ receptor (Ca^2+ receptor; hexacyclen 135 µM, neomycin 100 µM, NPS 382 5 mM): effective
change in current in water-injected oocytes (Ca^2+ receptor; neomycin B 10 mM, five water-injected oocytes): failed to cause any change in the current
pattern of change in [Ca2+]i ([1]; human parathyroid cells from adenomatous tissue, Fig. 19): not only a transient but additionally a steady-state increase in [Ca^2+]i
increase in [Ca2+]i ([1]; tested): large increase in [Ca^2+]i
Net (+) Charge [2]: +6
[Ca2+]i response in Ca2+-free buffer ([3]; 100 µM neomycin (maximally effective), absence of extracellular Ca2+): rapid and transient increase in [Ca^2+]i
[Ca2+]i response in Ca2+-free buffer ([3]; 10 àM neomycin alone (submaximal), Ca2+-free buffer): did not by itself cause an increase in [Ca^2+]i
